Entries after “also recorded” stand apart in the source; their conditions may differ.
How the values were obtained:
[1] = tested on: cytochrome P450 enzymes in HLM; experiment: HLM incubation with CYP inhibitors, with and without NADPH; conditions: peak area ratio, 60 min, ABT 1 mM, quinidine 1 μM
Protocol: Initially, two sets of incubations were conducted with HLM (0.5 mg/mL microsomal protein), 1 and 1011M MPZ, 100 mM KPi buffer (pH 7.4) where one set was in the presence and the other set was in the absence of 1 mM ABT, a non-specific CYP inhibitor for 60 minutes. This allowed the assessment of total CYP contribution for MPZ metabolism. Then, CYP-specific chemical inhibitors were used to assess the contribution of individual major CYP-isoforms where HLM were incubated with 1 or 1011M MPZ in the presence and in the absence of each CYP specific inhibitor at 37° C. for 60 minutes. The following CYP-isoform specific chemical inhibitors were used; furafylline (10 μM), tranylcypromine (10 μM), montelucast (0.5 μM), sulfaphenazole (5 μM), (+) benzylnirvinol (5 μM), quinidine (1 μM) and itraconazole (2.5 μM), for CYP1A2, CYP2B6, CYP2C8, CYP2C9, CYP2C19, CYP2D6 and CYP3A4/5. Parallel incubation with seven CYP specific probe substrates were included in as positive controls. For negative control reaction, MPZ was incubated at 37° C. in duplicate in reaction mixture devoid of NADPH. All other procedures were the same as previously described.

[2] = tested on: microsomal FMOs in HLM; experiment: Incubation with HLM for FMO (pH 8.4, methimazole, heat); format: in vitro ADME, human; conditions: HLM pH 8.4, 1 mM methimazole
Protocol: MPZ, at 1.0 and 10.0 μM, was incubated with HLM or HKM to determine the contribution of microsomal FMOs on the metabolism of MPZ.
A reaction mixture containing KPi buffer (pH 8.4), HLM or HKM (0.5 mg/mL protein) and MPZ (1.0 and 10.0 μM) was pre-incubated for 3-5 minutes at 37° C. The reaction was initiated by the addition of NADPH into the reaction mixture. Reaction was conducted for 0 and 60 min. A positive control (benzydamine, 100 μM) was incubated in duplicate for 0 and 20 minutes. Parallel incubation was conducted by adding 1 mM methimazole, a non-specific FMO inhibitor, under identical conditions. Heat inactivated microsomes (50° C. for at least 5 minutes) was incubated under identical conditions negative control. All other procedures were the same as described previously.

[3] = tested on: human microsomal liver amidase; experiment: Incubations with HLM for microsomal hydrolase/amidase activity; format: in vitro ADME
Protocol: Incubations with HLM for Microsomal Hydrolase/Amidase Activity Prior to the reaction for amidase activity, the reaction mixture containing KPi buffer (pH 7.4, 8.4, or 9.4) and HLM was pre-incubated at 50° C. for 5 minutes to inactivate CYP and FMO activities in HLM. The mixture was placed on ice to cool down. An aliquot was taken out which was considered as t=0 min incubation. Then 10 μM MPZ was added into the remaining mixture and incubated at 37° C. on an orbital shaker for 60 minutes. A parallel set of incubations was conducted with 10 μM MPZ in the presence at 2 and 16 μM, of BNPP (a known inhibitor of amidase). All reactions were in triplicate. The total percentage of organic solvent in incubation mixture was ≤0.1%. The reactions were terminated by the addition of chilled acetonitrile: methanol, 90:10, (v/v). The samples were vortex-mixed and stored at ≤−70° C. and were subjected analyzed by LC MS/MS.

[4] = Protocol: For protein concentration optimization, MPZ at 1 μM was incubated with varying concentration of HLM proteins (0.1, 0.25, 0.5, and 1.0 mg/mL microsomal protein), 100 mM KPi buffer (pH 7.4). After pre-incubation for 3-5 minutes at 37° C., the reaction was initiated by the addition of NADPH (1 mM) for 60 minutes in triplicates.
For incubation time optimization, MPZ at 1 μM was incubated with pooled HLM (0.5 mg/mL microsomal protein) and 100 mM KPi buffer (pH 7.4). After pre-incubation for) for 3-5 minutes at 37° C., the reaction was initiated by the addition NADPH (1 mM) incubated for 0, 10, 20, 40, 60, and 90 minutes to determine the optimal incubation time (linear range). All metabolic reactions in this study were terminated by the addition of chilled organic solvent (acetonitrile:ethanol 90:10, v/v) containing internal standards, unless otherwise indicated.
LC separation conditions were developed for MPZ and its metabolites (MPZA and MPZS), 7 hydroxycoumarin, each metabolite of CYP probe substrate, benzydamine N oxide, and phthalazine. The LC MS/MS system consisted of a Shimadzu Nexera X2 LC-30 UPLC system (Shimadzu Corporation, Kyoto, Japan), and an API 4000 triple quadrupole mass spectrometer (SCIEX, Framingham, MA) was used for analysis. All analytes were analyzed using electrospray ionization (ESI) in positive ion mode except for 7-EC, which used negative ion mode. The LC-MS/MS system was controlled by Analyst software (version 1.6.1, SCIEX, Framingham, MA).
For each analytical method, a calibration curve was generated for the quantification of MPZ and its two metabolites (MPZA and MPZS). […] PAR was also used for all positive control compounds.
% parent remaining=(mean concentration or PAR at each sampling time point/mean concentration or PAR of time zero)×100

[5] = Incubation of MPZ in human liver S9; format: in vitro ADME; conditions: human liver S9, 60-minute incubation
Protocol: Initial experiment was conducted with S9 fractions from liver and intestine to assess the role of liver and intestinal enzymes in the metabolism of MPZ. The reaction mixture contained 2.5 μM MPZ, pooled human liver or intestine S9 fraction (1 mg/mL S9 protein), 100 mM KPi buffer (pH 7.4). The reaction mixture was pre-incubated for 3-5 min at 37° C. in a humidified incubator filled with 5% CO2 followed by the addition of NADPH (1 mM) to initiate the reaction. The reaction was incubated for 0 and 60 min. The total percentage of organic solvent in incubation mixture was <0.1%. The reactions were terminated by the addition of sample mixture of acetonitrile and ethanol (90:10, v/v). The positive control substrate, 7-EC, was incubated in triplicate in an identical manner as MPZ for S9 fractions.

Molecule: C=C[C@H]1C[N@@]2CC[C@H]1C[C@@H]2[C@@H](O)c1ccnc2ccc(OC)cc12 [quinidine, reference compound]
- effect of CYP inhibitor on MPZH formation [1]: inhibited formation of MPZH

Molecule: Cn1cc[nH]c1=S [methimazole, reference compound]
- effect of FMO inhibitor on MPZA formation [2]: not inhibited

Molecule: O=[N+]([O-])c1ccc(OP(=O)(O)Oc2ccc([N+](=O)[O-])cc2)cc1 [BNPP, bis(4-nitrophenyl) phosphate]
- activity (MPZA formation) inhibited ([3]; BNPP 2 μM, HLM, 10 μM MPZ, even at the highest pH): at least 97%
- MPZA formation inhibited ([3]; BNPP 16 μM, HLM, 10 μM MPZ, all three pH values): > 99%
- inhibition of MPZA formation in HLM (in words) ([3]; BNPP 2 and 16 μM, pH 7.4, 8.4, 9.4): dramatically inhibited the formation of MPZA in HLM; also recorded: effectively inhibits formation of MPZA under all conditions

Molecule: metopimazine sulfoxide [MPZS]
- Peak Area at Time 0 [4]: 0
- Peak Area at Time 90 min [4]: 59
- metabolites formed [5]: formed
